The source of these data is patent US20260159512A1, “BCAT2 INHIBITORS” (AGIOS PHARMACEUTICALS, INC., priority 2021, published 2026).

Experiment [1] addresses T1, BCAT2 (Homo sapiens, UniProt O15382).
T1 sequence (O15382 28-392): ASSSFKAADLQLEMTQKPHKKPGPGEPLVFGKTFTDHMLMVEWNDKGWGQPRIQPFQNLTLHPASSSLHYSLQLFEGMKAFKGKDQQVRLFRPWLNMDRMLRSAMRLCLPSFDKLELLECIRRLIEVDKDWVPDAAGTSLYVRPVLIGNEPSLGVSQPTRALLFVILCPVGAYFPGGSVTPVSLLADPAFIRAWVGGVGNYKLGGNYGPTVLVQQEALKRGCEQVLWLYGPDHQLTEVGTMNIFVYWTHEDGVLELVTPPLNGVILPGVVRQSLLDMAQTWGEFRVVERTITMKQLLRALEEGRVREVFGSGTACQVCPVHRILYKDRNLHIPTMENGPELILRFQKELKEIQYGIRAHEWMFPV
Kind of experiment: BCAT2 in vitro enzyme inhibition assay (resazurin/diaphorase-coupled fluorescence). To be noted: average where tested multiple times. It is filed as biochemical. On the procedure: BCAT2 In Vitro Enzyme Inhibition Assay
1.67× hBCAT2 Enzyme Mix: 0.33 μg/mL hBCAT2, 1× Buffer
2.5× Substrate Mix: 460 μM L-leucine, 420 μM α-KetoGlutarate, 10 U/mL glutamate dehydrogenase, 10 mM NAD, 30 μg/mL diaphorase, 20 μm Resazurin
BCAT2 enzyme stock solution was diluted to prepare a 1.67× hBCAT2 Enzyme Mix. 1 μL of test compound was first added to the reaction wells followed by 30 μL of 1.67× hBCAT2 Enzyme Mix and incubated at room temperature (25° C.) for one hour. Meanwhile the Substrate Mix was prepared. The reaction was initiated by the addition of 20 μL of the 2.5× Substrate Mix, bringing the final reaction mix of all components to 1×. Reactions were quenched after one hour by the addition of 25 μL of 6% SDS and reaction progress was measured via fluorescence read (Ex 540/Em 590).
Test Compound Preparation:
Test compounds were prepared at 50× final concentration in DMSO, 1 to 3 dilutions were made for 10 points. The compounds were added to the assay as a 1 to 50 dilution (1 μL in 50 μL) to yield a top assay final concentration of 100 μM, decreasing 3-fold for 10 points. Each compound dilution series test also included an assay max (1 μL DMSO Added in lieu of compound, Full Reaction Components Included) and Min (1 μL DMSO Added in lieu of compound, 30 μl of 1.67× hBCAT2 Enzyme Mix replated by 30 μL of 1× Buffer). All tests were performed in technical duplicate.
Where a compound was tested multiple times, the average value of the tests is reported.
In general terms: Alamar Blue is a resazurin reagent that responds to reducing activity.

The target in experiment [2] is T1, BCAT2. Kind of experiment: BCAT2 in vitro cell inhibition using engineered A549 cells (KMV cell assay, 13C6-KMV by LC-MS/MS). To be noted: average where tested multiple times. It is filed as cell-based. The arrangement: The result was an engineered A549 cell line that expressed endogenous BCAT2; endogenous in cells; host or cells: A549 cells with MUT and BCAT1 knocked out by CRISPR/CAS9; key to BCAT2 Cell Inhibition: A: less than or equal to 0.100 μM; B: greater than 0.100 and less than or equal to 0.500 μM; C: greater than 0.500 and less than or equal to 1.000 μM; d: greater than 1.000 μM; E: no fit.

SMILES strings stand for the structures. pIC50: −log10 of the molar value.

By pIC50 is commonly meant −log10 of the IC50, conventionally taken in molar units.

On to `CC(C)Cc1nc2cnc(-n3nccn3)cc2n1[C@@H]1COC[C@H](NC(=O)c2ccc(Cl)s2)C1` (single isomer, unassigned) [Example 140], for which the pIC50 in experiment [1] was less than 6.00. Besides, the “BCAT2 Cell Inhibition” value in experiment [2] is “E”.

`O=C(N[C@H]1CCC[C@@H](n2c(C3COCCO3)nc3cnc(-c4nc[nH]n4)cc32)C1)c1ncc(Cl)s1` (single isomer, unassigned) [Example 177] had a pIC50 in experiment [1] of 6.00 to 6.30. The “BCAT2 Cell Inhibition” value in experiment [2] is given as “E”.

`CC(C)C(O)c1nc2cnc(-c3nc[nH]n3)cc2n1[C@@H]1CCC[C@H](NC(=O)c2ncc(Cl)s2)C1` (single isomer, unassigned) [Example 182]: the pIC50 in experiment [1] is not below 7.00; in experiment [2] it was 6.00 to 6.30.

Molecule `O=C(N[C@H]1CCC[C@@H](n2c(-c3ccccc3F)nc3cnc(C4CCCO4)cc32)C1)c1ncc(Cl)s1` (single isomer, unassigned) [Example 200] showed a pIC50 in experiment [1] of 6.00 to 6.30. Moreover, in experiment [2], the “BCAT2 Cell Inhibition” value is listed as “E”.

`O=C(N[C@H]1CCC[C@@H](n2c(-c3ccccc3F)nc3cnc(C4CCCO4)cc32)C1)c1ncc(Cl)s1` (single isomer, unassigned) [Example 201] had a pIC50 in experiment [1] of 6.00 to 6.30. For the same molecule, the “BCAT2 Cell Inhibition” value in experiment [2] is “E”.

The molecule `CC(C)Cc1nc2cnc(-c3ccccn3)cc2n1[C@H]1C[C@H](O)C[C@@H](NC(=O)c2ncc(Cl)s2)C1` (single isomer, unassigned) [Example 215] gave a pIC50 in experiment [1] of 6.00 to 6.30. In addition, the “BCAT2 Cell Inhibition” value in experiment [2] is recorded as “E”.

As for `CO[C@@H]1C[C@@H](NC(=O)c2ncc(Cl)s2)C[C@@H](n2c(-c3ccccc3F)nc3cnc(-c4nc[nH]n4)cc32)C1` (single isomer, unassigned) [Example 219], the pIC50 in experiment [1] is 6.30 to 7.00; in experiment [2] it was less than 6.00.

Consider `O=C(N[C@@H]1C[C@@H](O)C[C@H](n2c(-c3ccccc3F)nc3cnc(-c4ccn[nH]4)cc32)C1)c1ncc(Cl)s1` (single isomer, unassigned) [Example 259], for which the pIC50 in experiment [1] is 6.30 to 7.00; in experiment [2], less than 6.00.

With `CC(C)Cc1nc2cnc(-n3nccn3)cc2n1[C@H]1C[C@H](O)C[C@@H](NC(=O)c2ccc(Cl)s2)C1` (single isomer, unassigned) [Example 396], the figures for the negative logarithm of the IC50 (pIC50) in experiment [1] and in experiment [2] were not below 7.00 and less than 6.00, respectively.

`CO[C@@H]1C[C@@H](NC(=O)c2ncc(Cl)s2)C[C@@H](n2c(CC(C)C)nc3cnc(-c4ncc(C)o4)cc32)C1` (single isomer, unassigned) [Example 428]: the pIC50 in experiment [1] is less than 6.00. For the same molecule, the “BCAT2 Cell Inhibition” value in experiment [2] is recorded as “E”.

With `CO[C@H]1C[C@@H](NC(=O)c2ncc(Cl)s2)C[C@@H](n2c(CC(C)C)nc3cnc(-n4nccn4)cc32)C1` (single isomer, unassigned) [Example 440], the pIC50 in experiment [1] is 6.00 to 6.30. Besides, the “BCAT2 Cell Inhibition” value in experiment [2] is recorded as “E”.

`CN(C)Cc1ccccc1-c1nc2cnc(-c3nc[nH]n3)cc2n1[C@@H]1CCC[C@H](NC(=O)c2ncc(Cl)s2)C1` [Example 375, 5-chloro-N-((1S,3R)-3-(2-(2-((dimethylamino)methyl)phenyl)-6-(1H-1,2,4-triazol-3-yl)-1H-imidazo[4,5-c]pyridin-1-yl)cyclohexyl)thiazole-2-carboxamide] gave a pIC50 in experiment [1] of 6.00 to 6.30.

For `O=C(N[C@H]1CCC[C@@H](n2c(-c3ccccc3OCCO)nc3cnc(-c4nc[nH]n4)cc32)C1)c1ncc(Cl)s1` [Example 382, 5-chloro-N-((1S,3R)-3-(2-(2-(2-hydroxyethoxy)phenyl)-6-(1H-1,2,4-triazol-3-yl)-1H-imidazo[4,5-c]pyridin-1-yl)cyclohexyl)thiazole-2-carboxamide], the negative-log IC50 (pIC50) in experiment [1] is not below 7.00.

The molecule `CC(C)Cc1nc2cnc(-c3nc[nH]n3)cc2n1[C@@H]1CCC[C@H](NC(=O)c2ncc(Cl)s2)[C@@H]1O` [Example 408, 5-chloro-N-((1S,2S,3R)-2-hydroxy-3-(2-isobutyl-6-(1H-1,2,4-triazol-3-yl)-1H-imidazo[4,5-c]pyridin-1-yl)cyclohexyl)thiazole-2-carboxamide] gave a pIC50 in experiment [1] not below 7.00.

The molecule `CO[C@@H]1C[C@@H](NC(=O)c2ncc(Cl)s2)C[C@@H](n2c(CC(C)C)nc3cnc(-c4nc(C)co4)cc32)C1` [Example 410, 5-chloro-N-((1S,3R,5R)-3-(2-isobutyl-6-(4-methyloxazol-2-yl)-1H-imidazo[4,5-c]pyridin-1-yl)-5-methoxycyclohexyl)thiazole-2-carboxamide] gave a negative-log IC50 (pIC50) in experiment [1] of less than 6.00.

Consider `COC(=O)O[C@@H]1[C@@H](NC(=O)c2ncc(Cl)s2)CCC[C@H]1n1c(-c2ccccc2F)nc2cnc(-c3nc[nH]n3)cc21` [Example 447, (1R,2S,6R)-2-(5-chlorothiazole-2-carboxamido)-6-(2-(2-fluorophenyl)-6-(1H-1,2,4-triazol-3-yl)-1H-imidazo[4,5-c]pyridin-1-yl)cyclohexyl methyl carbonate], for which the negative logarithm of the IC50 (pIC50) in experiment [1] is 6.30 to 7.00.

Consider `CS(=O)(=O)O[C@@H]1[C@@H](NC(=O)c2ncc(Cl)s2)CCC[C@H]1n1c(-c2ccccc2F)nc2cnc(-c3nc[nH]n3)cc21` [Example 448, (1R,2S,6R)-2-(5-chlorothiazole-2-carboxamido)-6-(2-(2-fluorophenyl)-6-(1H-1,2,4-triazol-3-yl)-1H-imidazo[4,5-c]pyridin-1-yl)cyclohexyl methanesulfonate], for which the pIC50 in experiment [1] was 6.00 to 6.30.

`[N-]=[N+]=N[C@@H]1[C@@H](NC(=O)c2ncc(Cl)s2)CCC[C@H]1n1c(-c2ccccc2F)nc2cnc(-c3nc[nH]n3)cc21` [Example 449, N-((1S,2R,3R)-2-azido-3-(2-(2-fluorophenyl)-6-(1H-1,2,4-triazol-3-yl)-1H-imidazo[4,5-c]pyridin-1-yl)cyclohexyl)-5-chlorothiazole-2-carboxamide] showed a pIC50 in experiment [1] not below 7.00.

For `[N-]=[N+]=N[C@H]1[C@@H](NC(=O)c2ncc(Cl)s2)CCC[C@H]1n1c(-c2ccccc2F)nc2cnc(-c3nc[nH]n3)cc21` [Example 450, N-((1S,2S,3R)-2-azido-3-(2-(2-fluorophenyl)-6-(1H-1,2,4-triazol-3-yl)-1H-imidazo[4,5-c]pyridin-1-yl)cyclohexyl)-5-chlorothiazole-2-carboxamide], in experiment [1], the pIC50 was less than 6.00.

Take `N#C[C@H]1[C@@H](NC(=O)c2ncc(Cl)s2)CCC[C@H]1n1c(-c2ccccc2F)nc2cnc(-c3nc[nH]n3)cc21` [Example 452, 5-chloro-N-((1S,2S,3R)-2-cyano-3-(2-(2-fluorophenyl)-6-(1H-1,2,4-triazol-3-yl)-1H-imidazo[4,5-c]pyridin-1-yl)cyclohexyl)thiazole-2-carboxamide]: the pIC50 in experiment [1] was less than 6.00.

Consider `O=C(N[C@H]1C[C@@H](n2c(-c3ccccc3F)nc3cnc(-c4nc[nH]n4)cc32)CS(=O)(=O)C1)c1ccc(Cl)s1` [Example 457, 5-chloro-N-((3S,5R)-5-(2-(2-fluorophenyl)-6-(1H-1,2,4-triazol-3-yl)-1H-imidazo[4,5-c]pyridin-1-yl)-1,1-dioxidotetrahydro-2H-thiopyran-3-yl)thiophene-2-carboxamide], for which, in experiment [1], the pIC50 is 6.30 to 7.00.

As to `CS(=O)(=O)N1C[C@@H](NC(=O)c2ncc(Cl)s2)C[C@@H](n2c(-c3ccccc3F)nc3cnc(-c4nc[nH]n4)cc32)C1` [Example 461, 5-chloro-N-((3S,5R)-5-(2-(2-fluorophenyl)-6-(1H-1,2,4-triazol-3-yl)-1H-imidazo[4,5-c]pyridin-1-yl)-1-(methylsulfonyl)piperidin-3-yl)thiazole-2-carboxamide], in experiment [1], the pIC50 was not below 7.00.

`COCCOc1ccccc1-c1nc2cnc(-c3nc[nH]n3)cc2n1[C@@H]1CCC[C@H](NC(=O)c2ncc(Cl)s2)C1` [Example 464, 5-chloro-N-((1S,3R)-3-(2-(2-(2-methoxyethoxy)phenyl)-6-(1H-1,2,4-triazol-3-yl)-1H-imidazo[4,5-c]pyridin-1-yl)cyclohexyl)thiazole-2-carboxamide]: the pIC50 in experiment [1] is not below 7.00.
